Results taken from patent publication US9487483B2, “Complement pathway modulators and uses thereof” (priority 2012, dated 2016).

What follows are compounds tested against Recombinant human factor D (Homo sapiens (Human), UniProt P00746) (assay: biochemical). Settings: Factor D inhibition data using Method 1; substrate Z-Lys-thiobenzyl, fluorescence readout; read-out: IC50.
Format: biochemical

Sequence of Recombinant human factor D (P00746 26-253): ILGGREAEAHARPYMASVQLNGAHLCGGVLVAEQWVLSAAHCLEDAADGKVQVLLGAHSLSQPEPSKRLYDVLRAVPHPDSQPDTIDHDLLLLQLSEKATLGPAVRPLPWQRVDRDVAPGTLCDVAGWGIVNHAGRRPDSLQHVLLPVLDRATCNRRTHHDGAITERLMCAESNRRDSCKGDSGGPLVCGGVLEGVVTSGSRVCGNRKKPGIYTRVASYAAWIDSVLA

Q: How did the IC50 turn out when `CC(=O)c1nn(CC(=O)N2[C@@H]3C[C@@H]3C[C@H]2C(=O)NC2CC(C)(C)C2)c2cnccc12` [Example 1, (1R,3S,5R)-2-[2-(3-Acetyl-pyrazolo[3,4-c]pyridin-1-yl)-acetyl]-2-aza-bicyclo[3.1.0]hexane-3-carboxylic acid (3,3-dimethyl-cyclobutyl)-amide] was run?
A: 204 nM

Q: Which IC50 does the source give for `CC(=O)c1nn(CC(=O)N2[C@@H]3C[C@@H]3C[C@H]2C(=O)NC2CC2(C)C)c2ncccc12` (stereo partly drawn) [Example 2, (1R,3S,5R)-2-[2-(3-Acetyl-pyrazolo[3,4-b]pyridin-1-yl)-acetyl]-2-aza-bicyclo[3.1.0]hexane-3-carboxylic acid (2,2-dimethyl-cyclopropyl)-amide] here?
A: 6900 nM

Q: How did the IC50 turn out when `CC(=O)c1nn(CC(=O)N2[C@@H]3C[C@@H]3C[C@H]2C(=O)NC2CC2(F)F)c2ncccc12` (stereo partly drawn) [Example 3, (1R,3S,5R)-2-[2-(3-Acetyl-pyrazolo[3,4-b]pyridin-1-yl)-acetyl]-2-aza-bicyclo[3.1.0]hexane-3-carboxylic acid (2,2-difluoro-cyclopropyl)-amide] was run?
A: 4790 nM

Q: With `CC(=O)c1nn(CC(=O)N2[C@@H]3C[C@@H]3C[C@H]2C(=O)N[C@@H]2C[C@@H]2F)c2ncccc12` [Example 4, (1R,3S,5R)-2-[2-(3-Acetyl-pyrazolo[3,4-b]pyridin-1-yl)-acetyl]-2-aza-bicyclo[3.1.0]hexane-3-carboxylic acid ((1R,2S)-2-fluoro-cyclopropyl)-amide] as the compound, how does the IC50 read?
A: 5130 nM

Q: `CC(=O)c1nn(CC(=O)N2[C@@H]3C[C@@H]3C[C@H]2C(=O)NC2CC(C)(C)CC(C)(C)C2)c2ncccc12` [Example 6, (1R,3S,5R)-2-[2-(3-Acetyl-pyrazolo[3,4-b]pyridin-1-yl)-acetyl]-2-aza-bicyclo[3.1.0]hexane-3-carboxylic acid (3,3,5,5-tetramethyl-cyclohexyl)-amide] was tested. Which IC50 did it give?
A: 56 nM

Q: `CC(=O)c1nn(CC(=O)N2[C@@H]3C[C@@H]3C[C@H]2C(=O)NC2CCOC(C)(C)C2)c2cnccc12` (stereo partly drawn) [Example 7, (1R,3S,5R)-2-[2-(3-Acetyl-pyrazolo[3,4-c]pyridin-1-yl)-acetyl]-2-aza-bicyclo[3.1.0]hexane-3-carboxylic acid (2,2-dimethyl-tetrahydro-pyran-4-yl)-amide] was tested. Which IC50 did it give?
A: 1680 nM

Q: How did the IC50 turn out when `CC(=O)c1nn(CC(=O)N2[C@@H]3C[C@@H]3C[C@H]2C(=O)NC2CC(F)(F)C2)c2cnccc12` [Example 8, (1R,3S,5R)-2-[2-(3-Acetyl-pyrazolo[3,4-c]pyridin-1-yl)-acetyl]-2-aza-bicyclo[3.1.0]hexane-3-carboxylic acid (3,3-difluoro-cyclobutyl)-amide] was run?
A: 2390 nM

Q: How did the IC50 turn out when `CC(=O)c1nn(CC(=O)N2[C@@H]3C[C@@H]3C[C@H]2C(=O)NC2CCC(F)(F)CC2)c2cnccc12` [Example 11, (1R,3S,5R)-2-[2-(3-Acetyl-pyrazolo[3,4-c]pyridin-1-yl)-acetyl]-2-aza-bicyclo[3.1.0]hexane-3-carboxylic acid (4,4-difluoro-cyclohexyl)-amide] was run?
A: 3020 nM

Q: How did the IC50 turn out when `COC(=O)[C@@H]1CC[C@@H](NC(=O)[C@@H]2C[C@H]3C[C@H]3N2C(=O)Cn2nc(C(C)=O)c3cccnc32)C1` [Example 13, (1R,3R)-3-({(1R,3S,5R)-2-[2-(3-Acetyl-pyrazolo[3,4-b]pyridin-1-yl)-acetyl]-2-aza-bicyclo[3.1.0]hexane-3-carbonyl}-amino)-cyclopentane carboxylic acid methyl ester] was run?
A: 5970 nM

Q: How did the IC50 turn out when `COC(=O)[C@@H]1CCC[C@H](NC(=O)[C@@H]2C[C@H]3C[C@H]3N2C(=O)Cn2nc(C(C)=O)c3cccnc32)C1` [Example 14, (1R,3S)-3-({(1R,3S,5R)-2-[2-(3-Acetyl-pyrazolo[3,4-b]pyridin-1-yl)-acetyl]-2-aza-bicyclo[3.1.0]hexane-3-carbonyl}-amino)-cyclohexanecarboxylic acid methyl ester] was run?
A: 2430 nM

Q: How did the IC50 turn out when `NC(=O)n1cc(NC(=O)N2[C@@H]3C[C@@H]3C[C@H]2C(=O)NC2CCCCC2)c2ccccc21` [Example 15, (1R,3S,5R)-2-Aza-bicyclo[3.1.0]hexane-2,3-dicarboxylic acid 2-[(1-carbamoyl-1H-indol-3-yl)-amide]3-cyclohexylamide] was run?
A: 1760 nM

Q: With `NC(=O)n1cc(NC(=O)N2[C@@H]3C[C@@H]3C[C@H]2C(=O)N[C@@H]2C=CCCC2)c2ccccc21` [Example 16, (1R,3S,5R)-2-Aza-bicyclo[3.1.0]hexane-2,3-dicarboxylic acid 2-[(1-carbamoyl-1H-indol-3-yl)-amide] 3-(S)-cyclohex-2-enylamide] as the compound, how does the IC50 read?
A: 3150 nM

Q: With `CO[C@H]1CCC[C@@H](NC(=O)[C@@H]2C[C@H]3C[C@H]3N2C(=O)Nc2cn(C(N)=O)c3ccccc23)C1` [Example 21, (1R,3S,5R)-2-Aza-bicyclo[3.1.0]hexane-2,3-dicarboxylic acid 2-[(1-carbamoyl-1H-indol-3-yl)-amide] 3-[((1R,3S)-3-methoxy-cyclohexyl)-amide]] as the compound, how does the IC50 read?
A: 486 nM

Q: With `CC1(C)CCC[C@@H](NC(=O)[C@@H]2C[C@H]3C[C@H]3N2C(=O)Nc2cn(C(N)=O)c3ccccc23)C1` [Example 22, (1R,3S,5R)-2-Aza-bicyclo[3.1.0]hexane-2,3-dicarboxylic acid 2-[(1-carbamoyl-1H-indol-3-yl)-amide] 3-[((R)-3,3-dimethyl-cyclohexyl)-amide]] as the compound, how does the IC50 read?
A: 15 nM

Q: `CC[C@H]1CCC[C@@H](NC(=O)[C@@H]2C[C@H]3C[C@H]3N2C(=O)Nc2cn(C(N)=O)c3ccccc23)C1` [Example 23, (1R,3S,5R)-2-Aza-bicyclo [3.1.0]hexane-2,3-dicarboxylic acid 2-[(1-carbamoyl-1H-indol-3-yl)-amide] 3-[((1R,3S)-3-ethyl-cyclohexyl)-amide]] was tested. Which IC50 did it give?
A: 16 nM

Q: With `CC[C@@H]1CCC[C@H](NC(=O)[C@@H]2C[C@H]3C[C@H]3N2C(=O)Nc2cn(C(N)=O)c3ccccc23)C1` [Example 24, (1R,3S,5R)-2-Aza-bicyclo [3.1.0]hexane-2,3-dicarboxylic acid 2-[(1-carbamoyl-1H-indol-3-yl)-amide] 3-[((1S,3R)-3-ethyl-cyclohexyl)-amide]] as the compound, how does the IC50 read?
A: 401 nM

Same assay, conditions: IC50, Factor D inhibition data using Method 1; substrate Z-Lys-thiobenzyl, fluorescence readout

Q: `COC1(C(F)(F)F)CCCC(NC(=O)[C@@H]2C[C@H]3C[C@H]3N2C(=O)Cn2nc(C(N)=O)c3ccccc32)C1` (single isomer, unassigned) [Example 39] was tested. Which IC50 did it give?
A: 85 nM

Q: `COC1(C(F)(F)F)CCCC(NC(=O)[C@@H]2C[C@H]3C[C@H]3N2C(=O)Cn2nc(C(N)=O)c3ccccc32)C1` (single isomer, unassigned) [Example 40] was tested. Which IC50 did it give?
A: 4470 nM

Q: With `NC(=O)c1nn(CC(=O)N2[C@@H]3C[C@@H]3C[C@H]2C(=O)NC2CCCC3(CC3)C2)c2ccccc12` (single isomer, unassigned) [Example 57] as the compound, how does the IC50 read?
A: 1930 nM

Q: `NC(=O)c1nn(CC(=O)N2[C@@H]3C[C@@H]3C[C@H]2C(=O)NC2CCCC3(CC3)C2)c2ccccc12` (single isomer, unassigned) [Example 58] was tested. Which IC50 did it give?
A: 41 nM

Q: How did the IC50 turn out when `CC1(C)CCC(NC(=O)[C@@H]2C[C@H]3C[C@H]3N2C(=O)Cn2nc(C(N)=O)c3ccncc32)C1` (single isomer, unassigned) [Example 67] was run?
A: 318 nM

Q: For `CC1(C)CCC(NC(=O)[C@@H]2C[C@H]3C[C@H]3N2C(=O)Cn2nc(C(N)=O)c3ccncc32)C1` (single isomer, unassigned) [Example 68], which IC50 is on record?
A: 1920 nM

Q: For `NC(=O)c1nn(CC(=O)N2C[C@H](F)C[C@H]2C(=O)NC2CCCC3(CC3)C2)c2ccccc12` (single isomer, unassigned) [Example 92], which IC50 is on record?
A: 2000 nM

Q: Which IC50 does the source give for `NC(=O)c1nn(CC(=O)N2C[C@H](F)C[C@H]2C(=O)NC2CCCC3(CC3)C2)c2ccccc12` (single isomer, unassigned) [Example 93] here?
A: 92 nM

Q: Which IC50 does the source give for `CC(=O)c1nn(CC(=O)N2[C@H](C(=O)NC3CCCC4(CC4)C3)C[C@@]3(CO)C[C@@H]23)c2cnccc12` (single isomer, unassigned) [Example 113] here?
A: 90 nM

Q: For `CC(=O)c1nn(CC(=O)N2[C@H](C(=O)NC3CCCC4(CC4)C3)C[C@@]3(CO)C[C@@H]23)c2cnccc12` (single isomer, unassigned) [Example 114], which IC50 is on record?
A: 1280 nM

Same assay, conditions: read-out: IC50

Q: With `COC1(C)CCCC(NC(=O)[C@@H]2C[C@H]3C[C@H]3N2C(=O)Cn2nc(C(N)=O)c3ccccc32)C1` (mixture of isomers) [Example 126, 1-(2-((1R,3S,5R)-3-(((1R,3S) and (1S,3R)-3-methoxy-3-methylcyclohexyl)carbamoyl)-2-azabicyclo[3.1.0]hexan-2-yl)-2-oxoethyl)-1H-indazole-3-carboxamide] as the compound, how does the IC50 read?
A: 200 nM

Q: How did the IC50 turn out when `CC(=O)c1nn(CC(=O)N2[C@@H]3C[C@@H]3C[C@H]2C(=O)NC2CC(C)CC(C)(C)C2)c2ncccc12` (stereo partly drawn) [Example 5, (1R,3S,5R)-2-[2-(3-Acetyl-pyrazolo[3,4-b]pyridin-1-yl)-acetyl]-2-aza-bicyclo[3.1.0]hexane-3-carboxylic acid (3,3,5-trimethyl-cyclohexyl)-amide] was run?
A: 22 nM

Q: Which IC50 does the source give for `CC(=O)c1nn(CC(=O)N2[C@@H]3C[C@@H]3C[C@H]2C(=O)NC2CCCC(F)(F)C2)c2cnccc12` (stereo partly drawn) [Example 9, (1R,3S,5R)-2-[2-(3-Acetyl-pyrazolo[3,4-c]pyridin-1-yl)-acetyl]-2-aza-bicyclo[3.1.0]hexane-3-carboxylic acid (3,3-difluoro-cyclohexyl)-amide] here?
A: 1480 nM

Q: `CC(=O)c1nn(CC(=O)N2[C@@H]3C[C@@H]3C[C@H]2C(=O)NC2(CO)CCCCC2)c2cnccc12` [Example 10, (1R,3S,5R)-2-[2-(3-Acetyl-pyrazolo[3,4-c]pyridin-1-yl)-acetyl]-2-aza-bicyclo[3.1.0]hexane-3-carboxylic acid (1-hydroxymethyl-cyclohexyl)-amide] was tested. Which IC50 did it give?
A: 1820 nM

Q: For `CC(=O)c1nn(CC(=O)N2[C@@H]3C[C@@H]3C[C@H]2C(=O)N[C@@H]2CC[C@@H](C(N)=O)C2)c2ncccc12` [Example 12, (1R,3S,5R)-2-[2-(3-Acetyl-pyrazolo[3,4-b]pyridin-1-yl)-acetyl]-2-aza-bicyclo[3.1.0]hexane-3-carboxylic acid ((1R,3R)-3-carbamoyl-cyclopentyl)-amide], which IC50 is on record?
A: 12700 nM

Q: For `C[C@H]1CCC[C@@H](NC(=O)[C@@H]2C[C@H]3C[C@H]3N2C(=O)Nc2cn(C(N)=O)c3ccccc23)C1` [Example 25, (1R,3S,5R)-2-Aza-bicyclo[3.1.0] hexane-2,3-dicarboxylic acid 2-[(1-carbamoyl-1H-indol-3-yl)-amide] 3-[((1R,3S)-3-methyl-cyclohexyl)-amide]], which IC50 is on record?
A: 28 nM
